Experimental data: patent publication US20160122307A1, “PERHYDROQUINOXALINE DERIVATIVES” (DR. AUGUST WOLFF GMBH & CO. KG ARZNEIMITTEL, priority 2013, published 2016)
Like-named read-outs stand apart in the source and are kept apart here.

Molecular target: Human opiate κ receptors (Homo sapiens, UniProt P41145)
Assay: κ opioid receptor functional assay, [35S]GTPγS binding (assay C)
Assay type: biochemical
Conditions: for activation at 1 µM: 0.5 h, read-out: % activation functional assay at 1 μM
[1] = read-out: EC50 (nM) [35S]GTPγS binding

Chain of Human opiate κ receptors (P41145 whole entry): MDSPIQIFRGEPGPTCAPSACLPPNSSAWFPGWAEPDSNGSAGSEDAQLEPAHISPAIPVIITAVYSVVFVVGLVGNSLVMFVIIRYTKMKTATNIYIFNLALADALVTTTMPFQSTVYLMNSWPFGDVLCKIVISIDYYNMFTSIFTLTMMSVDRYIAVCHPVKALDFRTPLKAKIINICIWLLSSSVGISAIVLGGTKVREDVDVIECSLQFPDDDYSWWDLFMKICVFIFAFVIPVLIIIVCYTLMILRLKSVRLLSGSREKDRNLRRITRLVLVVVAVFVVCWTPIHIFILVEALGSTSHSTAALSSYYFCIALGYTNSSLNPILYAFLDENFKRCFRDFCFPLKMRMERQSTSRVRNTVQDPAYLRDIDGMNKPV

| Compound | activation at 1 µM | EC50 (GTPγS EC50 (nM)) | other results |
| --- | --- | --- | --- |
| COC(=O)COC(=O)N1CCN(C(=O)Cc2ccc(Cl)c(Cl)c2)C2C(N3CCCC3)CCCC21 (racemic) [Example 67] | 106% | < 10 nM | – |
| NC(=O)COC(=O)N1CCN(C(=O)Cc2ccc(Cl)c(Cl)c2)C2C(N3CCCC3)CCCC21 (racemic) [Example 68] | 104% | 10 to 100 nM | – |
| O=C(O)COC(=O)N1CCN(C(=O)Cc2ccc(Cl)c(Cl)c2)C2C(N3CCCC3)CCCC21 (racemic) [Example 69] | 101% | 10 to 100 nM | – |
| COC(=O)N1CCN(C(=O)Cc2ccc(Cl)c(Cl)c2)C2C(N3CC(O)C3)CCCC21 (racemic) [Example 71] | – | – | % activation functional assay at 1 μM: 113%; EC50 (read-out: GTPγS EC50): 10 to 100 nM |
| Cl.Cl.Cl.O=C(Cc1ccc(Cl)c(Cl)c1)N1CCN(c2cccnc2)C2CCCC(N3CCCC3)C21 (racemic) [Example 72] | – | – | % activation functional assay at 1 μM: 106%; EC50 (read-out: GTPγS EC50): < 10 nM |
| COC(=O)CNC(=O)N1CCN(C(=O)Cc2ccc(Cl)c(Cl)c2)C2C(N3CCCC3)CCCC21 (racemic) [Example 75] | 113% | < 10 nM | – |
| NC(=O)CNC(=O)N1CCN(C(=O)Cc2ccc(Cl)c(Cl)c2)C2C(N3CCCC3)CCCC21 (racemic) [Example 76] | 106% | 10 to 100 nM | – |
| O=C(O)CNC(=O)N1CCN(C(=O)Cc2ccc(Cl)c(Cl)c2)C2C(N3CCCC3)CCCC21 (racemic) [Example 77] | 98% | 10 to 100 nM | – |
| O=C(C1CCNC1)N1CCN(C(=O)Cc2ccc(Cl)c(Cl)c2)C2C(N3CCCC3)CCCC21 (racemic) [Example 78] | 64% | 100 to 1000 nM | – |
| O=C(C=Cc1ccoc1)N1CCN(C(=O)Cc2ccc(Cl)c(Cl)c2)C2C(N3CCCC3)CCCC21 (racemic) [Example 79] | 102% | – | – |
| O=C(C1CCCN1)N1CCN(C(=O)Cc2ccc(Cl)c(Cl)c2)C2C(N3CCCC3)CCCC21 (racemic) [Example 80] | 76% | 100 to 1000 nM | – |
| O=C(c1ncccn1)N1CCN(C(=O)Cc2ccc(Cl)c(Cl)c2)C2C(N3CCCC3)CCCC21 (racemic) [Example 82] | 97% | – | – |
| O=C(c1ncccn1)N1CCN(C(=O)Cc2ccc(Cl)c(Cl)c2)C2C(N3CCCC3)CCCC21 (racemic) [Example 83] | – | – | % activation functional assay at 1 μM: 111% |
| COC(=O)c1ccc(C(=O)N2CCN(C(=O)Cc3ccc(Cl)c(Cl)c3)C3C(N4CCCC4)CCCC32)nc1 (racemic) [Example 85] | 101% | – | – |
| COC(=O)c1cccc(C(=O)N2CCN(C(=O)Cc3ccc(Cl)c(Cl)c3)C3C(N4CCCC4)CCCC32)c1 (racemic) [Example 86] | 86% | – | – |
| NC(=O)c1ccc(C(=O)N2CCN(C(=O)Cc3ccc(Cl)c(Cl)c3)C3C(N4CCCC4)CCCC32)cc1 (racemic) [Example 87] | 109% | – | – |
| COC(=O)N1CCN(C(=O)Cc2ccc(Cl)c(Cl)c2)C2C(N3CCC(O)CC3)CCCC21 (racemic) [Example 88] | – | – | % activation functional assay at 1 μM: 107%; EC50 (read-out: GTPγS EC50): < 10 nM |
| O=C(Cc1ccc(Cl)c(Cl)c1)N1CCN(Cc2ccccc2)[C@@H]2CCC[C@H](N3CCCC3)[C@H]21 (racemic) [H, reference compound] | – | – | activation (% of control) at 1 μM: 97 % of control; EC50 (EC50 (nM) [35S]GTPγS binding): 29 nM |
| CCOC(=O)N1CCN(C(=O)Cc2ccc(Cl)c(Cl)c2)C2C(N3CCCC3)CCCC21 (racemic) [O, reference compound] | – | – | activation (% of control) at 1 μM: 88 % of control; EC50 [1]: 150 nM |
| COC(=O)CCC(=O)N1CCN(C(=O)Cc2ccc(Cl)c(Cl)c2)[C@H]2[C@H]1CCC[C@@H]2N1CCCC1 (racemic) [Q, reference compound] | – | – | EC50: 530 nM; activation (% of control) at 1 μM: 61 % of control |
| COC(=O)N1CCN(C(=O)Cc2ccc(Cl)c(Cl)c2)[C@H]2[C@H](N3CCCC3)CCC[C@@H]21 (racemic) [Reference compound B, reference compound] | 90% | – | activation (% of control) at 1 μM: 90 % of control |
| COC(=O)N1CCN(C(=O)Cc2ccc(Cl)c(Cl)c2)[C@@H]2[C@H]1CCC[C@@H]2N1CCCC1 (racemic) [Reference compound E, reference compound] | 68% | – | – |
| O=C(Cc1ccc(Cl)c(Cl)c1)N1CCN(Cc2cccnc2)[C@@H]2CCC[C@H](N3CCCC3)[C@H]21 (racemic) [Y, reference compound] | – | – | activation (% of control) at 1 μM: 96 % of control; EC50 (EC50 (nM) [35S]GTPγS binding): 34 nM |
| COC(=O)N1CCN(C(=O)Cc2ccc(Cl)c(Cl)c2)[C@H]2[C@H](N3CCCC3)CCC[C@H]21 (single isomer, unassigned) [Reference compound A, reference compound] | 51% | – | – |
| COC(=O)N1CCN(C(=O)Cc2ccc(Cl)c(Cl)c2)[C@H]2[C@H](N3CCCC3)CCC[C@@H]21 (single isomer, unassigned) [Reference compound C, reference compound] | 85% | – | – |
| COC(=O)N1CCN(C(=O)Cc2ccc(Cl)c(Cl)c2)[C@H]2[C@H]1CCC[C@@H]2N1CCCC1 (single isomer, unassigned) [Reference compound D, reference compound] | 92% | – | – |

| Compound | activation at 1 µM | EC50 (GTPγS EC50 (nM)) | other results |
| --- | --- | --- | --- |
| O=C(Cc1ccc(Cl)c(Cl)c1)N1CCN(Cc2cnc[nH]2)C2CCCC(N3CCCC3)C21 (centres unmarked) [AA, reference compound] | – | – | activation (% of control) at 1 μM: 89 % of control; EC50 [1]: 56 nM |
| COC(=O)N1CCN(C(=O)Cc2ccc(Cl)c(Cl)c2)C2C(N3CCC(O)C3)CCCC21 (centres unmarked) [Example 11] | 92% | 10 to 100 nM | activation (% of control) at 1 μM (1 µM): 92 % of control; EC50 (EC50 (nM) [35S]GTPγS binding): 11.7 nM |
| COC(=O)N1CCN(C(=O)Cc2ccc(Cl)c(Cl)c2)C2C(N3CCC(O)C3)CCCC21 (centres unmarked) [Example 53] | – | < 10 nM | % activation functional assay at 1 μM: 97%; activation (% of control) at 1 μM (1 µM): 97 % of control; EC50 (EC50 (nM) [35S]GTPγS binding): 6.1 nM |
| COC(=O)N1CCN(C(=O)Cc2ccc(Cl)c(Cl)c2)[C@@H]2[C@@H](N(C)C)CCC[C@@H]21 [Example 90] | 96% | < 10 nM | – |
| CCN(C)[C@H]1CCC[C@H]2[C@@H]1N(C(=O)Cc1ccc(Cl)c(Cl)c1)CCN2C(=O)OC [Example 91] | 106% | < 10 nM | – |
| COC(=O)N1CCN(C(=O)Cc2ccc(F)c(Cl)c2)[C@@H]2[C@@H](N3CCCC3)CCC[C@@H]21 [Example 92] | 105% | 10 to 100 nM | – |
| COC(=O)N1CCN(C(=O)Cc2ccc(C(F)(F)F)c(Cl)c2)[C@@H]2[C@@H](N3CCCC3)CCC[C@@H]21 [Example 93] | 101% | < 10 nM | – |
| COC(=O)N1CCN(C(=O)Cc2ccc(Cl)c(F)c2)[C@@H]2[C@@H](N3CCCC3)CCC[C@@H]21 [Example 94] | 103% | 10 to 100 nM | – |
| Cl.O=C(OCc1ccccc1)N1CCN(C(=O)Cc2ccc(Cl)c(Cl)c2)C2C(N3CCCC3)CCCC21 (centres unmarked) [Example 95] | – | – | % activation functional assay at 1 μM: 104%; EC50 (read-out: GTPγS EC50): < 10 nM |
| COC(=O)N1CCN(C(=O)Cc2ccc(Cl)c(Cl)c2)[C@@H]2[C@@H](N3CC[C@@H](O)C3)CCC[C@@H]21 [Example 96] | 109% | < 10 nM | – |
| COC(=O)N1CCN(C(=O)Cc2ccc(Cl)c(Cl)c2)[C@@H]2[C@@H](N3CC[C@H](O)C3)CCC[C@@H]21 [Example 97] | 113% | < 10 nM | – |
| CN(C)S(=O)(=O)N1CCN(C(=O)Cc2ccc(Cl)c(Cl)c2)[C@@H]2[C@@H](N3CCCC3)CCC[C@@H]21 [Example 98] | 105% | < 10 nM | – |
| CC(C)NC(=O)N1CCN(C(=O)Cc2ccc(Cl)c(Cl)c2)[C@@H]2[C@@H](N3CCCC3)CCC[C@@H]21 [Example 99] | 100% | < 10 nM | – |
| O=C(Cc1ccc(Cl)c(Cl)c1)N1CCN(C(=O)NCc2ccccc2)[C@H]2CCC[C@H](N3CCCC3)[C@H]21 [Example 100] | 105% | < 10 nM | – |
| COC(=O)COC(=O)N1CCN(C(=O)Cc2ccc(Cl)c(Cl)c2)[C@@H]2[C@@H](N3CCCC3)CCC[C@@H]21 [Example 101] | 99% | < 10 nM | – |
| CS(=O)(=O)N1CCN(C(=O)Cc2ccc(Cl)c(Cl)c2)[C@@H]2[C@@H](N3CCCC3)CCC[C@@H]21 [Example 102] | 106% | < 10 nM | – |
| COC(=O)C(=O)N1CCN(C(=O)Cc2ccc(Cl)c(Cl)c2)C2C(N3CCCC3)CCCC21.Cl (centres unmarked) [Example 103] | – | – | % activation functional assay at 1 μM: 98%; EC50 (read-out: GTPγS EC50): < 10 nM |
| COC(=O)COC(=O)N1CCN(C(=O)Cc2ccc(Cl)c(Cl)c2)[C@@H]2[C@@H](N3CC[C@@H](O)C3)CCC[C@@H]21 [Example 105] | 116% | < 10 nM | – |
| COC(=O)COC(=O)N1CCN(C(=O)Cc2ccc(Cl)c(Cl)c2)[C@@H]2[C@@H](N3CC[C@H](O)C3)CCC[C@@H]21 [Example 106] | 92% | < 10 nM | – |
| CC(C)OC(=O)COC(=O)N1CCN(C(=O)Cc2ccc(Cl)c(Cl)c2)[C@@H]2[C@@H](N3CCCC3)CCC[C@@H]21 [Example 107] | 104% | < 10 nM | – |
| COC(=O)N1CCN(C(=O)Cc2ccc(C(F)(F)F)c(Cl)c2)[C@@H]2[C@@H](N3CC[C@H](O)C3)CCC[C@@H]21 [Example 108] | 100% | < 10 nM | – |
| COC(=O)N1CCN(C(=O)Cc2ccc(F)c(Cl)c2)[C@@H]2[C@@H](N3CC[C@H](O)C3)CCC[C@@H]21 [Example 109] | 110% | < 10 nM | – |
| COC(=O)N1CCN(C(=O)Cc2ccc(F)c(Cl)c2)C2C(N3CCC(O)C3)CCCC21.Cl (centres unmarked) [Example 110] | – | – | % activation functional assay at 1 μM: 92%; EC50 (read-out: GTPγS EC50): 10 to 100 nM |
| COC(=O)N1CCN(C(=O)Cc2ccc(C(F)(F)F)c(Cl)c2)[C@@H]2[C@@H](N3CC[C@@H](O)C3)CCC[C@@H]21 [Example 113] | 102% | < 10 nM | – |
| COC(=O)N1CCN(C(=O)Cc2ccc(Cl)c(F)c2)C2C(N3CCC(O)C3)CCCC21.Cl (centres unmarked) [Example 115] | – | – | % activation functional assay at 1 μM: 103%; EC50 (read-out: GTPγS EC50): 10 to 100 nM |
| CN(C)C(=O)C(=O)N1CCN(C(=O)Cc2ccc(Cl)c(Cl)c2)[C@@H]2[C@@H](N3CCCC3)CCC[C@@H]21.Cl [Example 116] | – | – | % activation functional assay at 1 μM: 111%; EC50 (read-out: GTPγS EC50): 10 to 100 nM |
